Source: patent US20190105337A1, “METHODS OF TREATING BACTERIAL INFECTIONS” (priority 2015, published 2019)
Read-outs that look alike come from different tables or passages of the source.

Experiments:
[1] = Example 1: pharmacokinetics of Compound I, single (SD) and multiple (MD, q8h 7 days) ascending doses, 3-hour IV infusion, healthy adult subjects; assay type: in vivo, human; settings: for CL renal / AUC(0-t) / Cmax / Tmax / half-life / AUC(0-inf) / dose excreted: human, intravenous; for CL renal: plasma and urine; for AUC(0-t) / Cmax / Tmax / half-life / AUC(0-inf): plasma; for dose excreted: urine
Protocol: (§1) 56 healthy subjects were enrolled into one of 7 cohorts of 8 subjects each in the single ascending dose phase (250 mg, 500 mg, 750 mg, 1000 mg, 1250 mg, 1500 mg and 2000 mg). Thirty-two additional subjects were then enrolled into one of 4 cohorts in the multiple-dose phase (250 mg, 1000 mg, 1500 mg, and 2000 mg, given q8 h for 7 days). […] All infusions were administered over 3 hours. Plasma and urine samples were obtained after single or multiple doses and assayed for Compound I content using a validated HPLC/MS method.

[2] = Example 1: safety and tolerability of Compound I in healthy adult subjects; assay type: in vivo, human
Protocol: as §1

clinical = settings: human, in vivo; for clearance: Plasma Clearance; for Vd: Vss
Protocol: The combination of both drugs was administered on day 7. All drugs were infused over 3 hours. Plasma and urine samples were obtained and assayed using validated HPLC/MS methods.

[3] = In vitro hollow fiber model: pharmacokinetic parameters of meropenem and Compound I in the central compartment (Tables E, F); settings: combination Compound I/meropenem (Table F)
Protocol: In Vitro PK-PD Model: Six medium sized hollow-fiber cartridges (FiberCell Systems) were used per experiment. Three strains studied in duplicate were used for each experiment. Log-phase cells were inoculated and incubated for 2 hours prior to the start of treatment to achieve about 10^8 CFU/mL. Target PK parameters are listed in Tables E and F. The exposures were based on the published literatures disclosed in Example 2. Samples were collected from the central compartment for the determination of drug concentrations over a 32 hour period and were analyzed using an LC-MS/MS method.

O=C(O)C[C@@H]1CC[C@H](NC(=O)Cc2cccs2)B(O)O1 [Compound I]
CLNon-R ([1]; 250 mg multiple dose): 2.49 L/h
CLNon-R ([1]; 250 mg single dose): 2.85 L/h
CLNon-R ([1]; 500 mg single dose): 2.55 L/h
CLNon-R ([1]; 750 mg single dose): 1.72 L/h
CLNon-R ([1]; 1000 mg multiple dose): 2.31 L/h
CLNon-R ([1]; 1000 mg single dose): 0.97 L/h
CLNon-R ([1]; 1250 mg single dose): 1.33 L/h
CLNon-R ([1]; 1500 mg multiple dose): 1.68 L/h
CLNon-R ([1]; 1500 mg single dose): 1.42 L/h
CLNon-R ([1]; 2000 mg multiple dose): 1.15 L/h
CLNon-R ([1]; 2000 mg single dose): -1.07 L/h
exposure (Cmax and AUC) versus dose ([1]; following single and multiple doses): increased in a dose-proportional manner
CL renal ([1]; 250 mg, 250 mg multiple dose): 212 mL/min
CL renal ([1]; 250 mg, 250 mg single dose): 212 mL/min
CL renal ([1]; 500 mg, 500 mg single dose): 197 mL/min
CL renal ([1]; 750 mg, 750 mg single dose): 217 mL/min
CL renal ([1]; 1000 mg, 1000 mg multiple dose): 195 mL/min
CL renal ([1]; 1000 mg, 1000 mg single dose): 202 mL/min
CL renal ([1]; 1250 mg, 1250 mg single dose): 192 mL/min
CL renal ([1]; 1500 mg, 1500 mg multiple dose): 187 mL/min
CL renal ([1]; 1500 mg, 1500 mg single dose): 197 mL/min
CL renal ([1]; 2000 mg, 2000 mg multiple dose): 213 mL/min
CL renal ([1]; 2000 mg, 2000 mg single dose): 252 mL/min
AUC(0-t) ([1]; 250 mg, 250 mg multiple dose): 16300 ng·h/mL
Cmax ([1]; 250 mg, 250 mg multiple dose): 4810 ng/mL
Tmax ([1]; 250 mg, 250 mg multiple dose): 2.25 h
half-life ([1]; 250 mg, 250 mg multiple dose, read-out: T1/2 (converted)): 70.2 min
AUC(0-t) ([1]; 250 mg, 250 mg single dose): 16200 ng·h/mL
Cmax ([1]; 250 mg, 250 mg single dose): 5030 ng/mL
Tmax ([1]; 250 mg, 250 mg single dose): 3.02 h
half-life ([1]; 250 mg, 250 mg single dose, read-out: T1/2 (converted)): 70.2 min
AUC(0-t) ([1]; 500 mg, 500 mg single dose): 34500 ng·h/mL
Cmax ([1]; 500 mg, 500 mg single dose): 9970 ng/mL
Tmax ([1]; 500 mg, 500 mg single dose): 3 h
half-life ([1]; 500 mg, 500 mg single dose, read-out: T1/2 (converted)): 81 min
AUC(0-t) ([1]; 750 mg, 750 mg single dose): 50600 ng·h/mL
Cmax ([1]; 750 mg, 750 mg single dose): 15300 ng/mL
Tmax ([1]; 750 mg, 750 mg single dose): 3 h
half-life ([1]; 750 mg, 750 mg single dose, read-out: T1/2 (converted)): 74.4 min
AUC(0-t) ([1]; 1000 mg, 1000 mg multiple dose): 74600 ng·h/mL
Cmax ([1]; 1000 mg, 1000 mg multiple dose): 21300 ng/mL
Tmax ([1]; 1000 mg, 1000 mg multiple dose): 3 h
half-life ([1]; 1000 mg, 1000 mg multiple dose, read-out: T1/2 (converted)): 85.8 min
AUC(0-t) ([1]; 1000 mg, 1000 mg single dose): 76700 ng·h/mL
Cmax ([1]; 1000 mg, 1000 mg single dose): 21800 ng/mL
Tmax ([1]; 1000 mg, 1000 mg single dose): 3.01 h
half-life ([1]; 1000 mg, 1000 mg single dose, read-out: T1/2 (converted)): 84.6 min
AUC(0-t) ([1]; 1250 mg, 1250 mg single dose): 97200 ng·h/mL
Cmax ([1]; 1250 mg, 1250 mg single dose): 27800 ng/mL
Tmax ([1]; 1250 mg, 1250 mg single dose): 3 h
half-life ([1]; 1250 mg, 1250 mg single dose, read-out: T1/2 (converted)): 79.2 min
AUC(0-t) ([1]; 1500 mg, 1500 mg multiple dose): 118000 ng·h/mL
Cmax ([1]; 1500 mg, 1500 mg multiple dose): 33400 ng/mL
Tmax ([1]; 1500 mg, 1500 mg multiple dose): 3 h
half-life ([1]; 1500 mg, 1500 mg multiple dose, read-out: T1/2 (converted)): 99 min
AUC(0-t) ([1]; 1500 mg, 1500 mg single dose): 110000 ng·h/mL
Cmax ([1]; 1500 mg, 1500 mg single dose): 32900 ng/mL
Tmax ([1]; 1500 mg, 1500 mg single dose): 3.01 h
half-life ([1]; 1500 mg, 1500 mg single dose, read-out: T1/2 (converted)): 84 min
AUC(0-t) ([1]; 2000 mg, 2000 mg multiple dose): 145000 ng·h/mL
Cmax ([1]; 2000 mg, 2000 mg multiple dose): 40900 ng/mL
Tmax ([1]; 2000 mg, 2000 mg multiple dose): 2.25 h
half-life ([1]; 2000 mg, 2000 mg multiple dose, read-out: T1/2 (converted)): 99.6 min
AUC(0-t) ([1]; 2000 mg, 2000 mg single dose): 140000 ng·h/mL
Cmax ([1]; 2000 mg, 2000 mg single dose): 41600 ng/mL
Tmax ([1]; 2000 mg, 2000 mg single dose): 3.02 h
half-life ([1]; 2000 mg, 2000 mg single dose, read-out: T1/2 (converted)): 90.6 min
half-life ([1]; observed, single and multiple doses, read-out: terminal half-life): < 120 min
AUC(0-inf) ([1]; 250 mg single dose): 16600 ng·h/mL
AUC(0-inf) ([1]; 500 mg single dose): 35600 ng·h/mL
AUC(0-inf) ([1]; 750 mg single dose): 51800 ng·h/mL
AUC(0-inf) ([1]; 1000 mg single dose): 79300 ng·h/mL
AUC(0-inf) ([1]; 1250 mg single dose): 100000 ng·h/mL
AUC(0-inf) ([1]; 1500 mg single dose): 114000 ng·h/mL
AUC(0-inf) ([1]; 2000 mg single dose): 144000 ng·h/mL
dose excreted ([1]; 250 mg, 250 mg multiple dose, read-out: Urinary Recovery): 79.9%
dose excreted ([1]; 250 mg, 250 mg single dose, read-out: Urinary Recovery): 81.3%
dose excreted ([1]; 500 mg, 500 mg single dose, read-out: Urinary Recovery): 80.3%
dose excreted ([1]; 750 mg, 750 mg single dose, read-out: Urinary Recovery): 86.4%
dose excreted ([1]; 1000 mg, 1000 mg multiple dose, read-out: Urinary Recovery): 82.8%
dose excreted ([1]; 1000 mg, 1000 mg single dose, read-out: Urinary Recovery): 89.9%
dose excreted ([1]; 1250 mg, 1250 mg single dose, read-out: Urinary Recovery): 86.9%
dose excreted ([1]; 1500 mg, 1500 mg multiple dose, read-out: Urinary Recovery): 86.8%
dose excreted ([1]; 1500 mg, 1500 mg single dose, read-out: Urinary Recovery): 86.6%
dose excreted ([1]; 2000 mg, 2000 mg multiple dose, read-out: Urinary Recovery): 91.6%
dose excreted ([1]; 2000 mg, 2000 mg single dose, read-out: Urinary Recovery): 105%
dose excreted ([1]; over 48 hours across all dose groups, read-out: Urinary recovery): ≥ 80%
accumulation with multiple doses ([1]; q8h for 7 days): no evidence of accumulation
serious adverse events (SAEs) ([2]; 250-2000 mg): no serious adverse events
severity of AEs ([2]; 250-2000 mg): all AEs were mild or moderate
safety and tolerability ([2]; all doses tested): safe and well tolerated at all doses tested
AUC(0-inf) (clinical; 250 mg): 17500 ng·h/mL
Cmax (clinical; 250 mg): 5200 ng/mL
half-life (clinical; 250 mg): 70.8 min
clearance (clinical; 250 mg): 245 mL/min
Vd (clinical; 250 mg): 23.1 L
AUC(0-inf) (clinical; 1000 mg): 77600 ng·h/mL
Cmax (clinical; 1000 mg): 22000 ng/mL
half-life (clinical; 1000 mg): 93.6 min
clearance (clinical; 1000 mg): 222 mL/min
Vd (clinical; 1000 mg): 21.4 L
AUC(0-inf) (clinical; 1500 mg): 124000 ng·h/mL
Cmax (clinical; 1500 mg): 37200 ng/mL
half-life (clinical; 1500 mg): 72.6 min
clearance (clinical; 1500 mg): 206 mL/min
Vd (clinical; 1500 mg): 19.4 L
AUC, Average Compound I Actual [3]: 105.3 mg·h/L
Cmax, Average Compound I Actual [3]: 26.4 mg/L
Half-Life, Average Compound I Actual [3]: 1.5 h
